Among the data in patent US20100286145A1, “ISOPHTHALAMIDE DERIVATIVES INHIBITING BETA-SECRETASE ACTIVITY” (CoMentis, Inc., priority 2007, published 2010) are Ki and IC50 values, retold here.

Each structure is given as a SMILES string.

The target of experiment [1] is memapsin 2 (Homo sapiens, UniProt P56817). Kind of experiment: Inhibition of memapsin 2 beta-secretase activity (fluorogenic substrate FS-2). The settings on record: memapsin 2, pH 4, 37° C., 20 minutes pre-incubation; read-out: M2Ki. The format is biochemical. The gist of the method:
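Memapsin 2 pre-incubated 20 min with compound at pH 4, 37° C, then FS-2 substrate (MCA-SEVNLDAEFK-DNP, APP Swedish cleavage site) added. Rate of fluorescence increase compared with uninhibited controls, fitted to a tight-binding inhibition model.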

Experiment [2] has as its system Aβ production in Chinese hamster ovary cells that over-express human APP695 with the London and Swedish mutations. Kind of experiment: Cellular Aβ IC50 determination (Aβ40 sandwich ELISA). In kind it is cell-based. The settings on record: Cricetulus griseus; cellular Aβ production; read-out: IC50. As to the method:
The potency of compounds against memapsin 2 activity was determined in a cellular assay of Aβ production. […] Chinese hamster ovary cells that over-express human APP695 with the London and Swedish mutations were seeded in multi-well plates at 10% confluency. Compounds are dissolved in DMSO to concentrations near 1 mM, and diluted into culture media to a final concentration near 4 μM (final 0.4% DMSO). […] Aliquots were removed and assayed for Aβ40 content using a sandwich ELISA (BioSource International). Amount of Aβ40 over the range of concentration of compounds, relative to control incubations, were fit to a 4-parameter IC50 model.
(ELISA stands for enzyme-linked immunosorbent assay.)

Sequence of memapsin 2 (P56817 46-501): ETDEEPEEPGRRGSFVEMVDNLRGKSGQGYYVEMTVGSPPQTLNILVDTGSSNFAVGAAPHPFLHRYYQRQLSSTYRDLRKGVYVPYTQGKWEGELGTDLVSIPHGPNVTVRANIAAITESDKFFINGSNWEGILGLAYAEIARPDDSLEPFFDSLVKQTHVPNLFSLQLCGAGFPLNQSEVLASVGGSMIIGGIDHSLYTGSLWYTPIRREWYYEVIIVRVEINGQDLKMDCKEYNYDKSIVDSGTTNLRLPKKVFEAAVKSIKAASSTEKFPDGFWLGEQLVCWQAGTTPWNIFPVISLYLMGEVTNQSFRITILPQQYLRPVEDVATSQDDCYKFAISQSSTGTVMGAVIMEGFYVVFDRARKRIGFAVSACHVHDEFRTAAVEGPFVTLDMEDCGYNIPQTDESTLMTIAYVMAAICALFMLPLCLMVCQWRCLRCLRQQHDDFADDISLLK

Regarding `Cc1csc(CN(C(=O)c2cccc(C(=O)N[C@@H](Cc3ccccc3)[C@H](O)CNCc3cccc(OC(F)(F)F)c3)c2)C2CC2)n1` [Compound 51, N1-cyclopropyl-N3-((2S,3R)-3-hydroxy-1-phenyl-4-(3-(trifluoromethoxy)benzylamino)butan-2-yl)-N1-((4-methylthiazol-2-yl)methyl)isophthalamide], in experiment [1], the Ki is less than 300 nM. In experiment [2], the IC50 was less than 1000 nM.
Taken in the same sequence, the figures for `Cc1csc(CN(C)C(=O)c2cccc(C(=O)N[C@@H](Cc3ccccc3)[C@H](O)CNCc3cccc(C(C)(C)C)c3)c2)n1` [Compound 52, N1-((2S,3R)-4-(3-tert-butylbenzylamino)-3-hydroxy-1-phenylbutan-2-yl)-N3-methyl-N3-((4-methylthiazol-2-yl)methyl)isophthalamide] were less than 300 nM and less than 1000 nM.
Taken in the same sequence, the figures for `COc1cc(C(=O)N[C@@H](Cc2ccccc2)[C@H](O)CNCc2ccnc(C(C)C)c2)cc(C(=O)N(C)Cc2nc(C)cs2)c1` [Compound 53, N1-((2S,3R)-3-hydroxy-4-((2-isopropylpyridin-4-yl)methylamino)-1-phenylbutan-2-yl)-5-methoxy-N3-methyl-N3-((4-methylthiazol-2-yl)methyl)isophthalamide] were less than 300 nM and less than 1000 nM.
Taken in the same sequence, the figures for `COC(=O)c1cc(CNC[C@@H](O)[C@H](Cc2ccccc2)NC(=O)c2cccc(C(=O)N(C)Cc3nc(C)cs3)c2)cc(OC)c1` [Compound 54, methyl 3-(((2R,3S)-2-hydroxy-3-(3-(methyl((4-methylthiazol-2-yl)methyl)carbamoyl)benzamido)-4-phenylbutylamino)methyl)-5-methoxybenzoate] were less than 300 nM and less than 1000 nM.
As for `Cc1csc(CN(C)C(=O)c2cccc(C(=O)N[C@@H](Cc3ccccc3)[C@H](O)CNCc3cc(C(C)C)cnc3F)c2)n1` [Compound 56, N1-((2S,3R)-4-((2-fluoro-5-isopropylpyridin-3-yl)methylamino)-3-hydroxy-1-phenylbutan-2-yl)-N3-methyl-N3-((4-methylthiazol-2-yl)methyl)isophthalamide], the Ki in experiment [1] is less than 300 nM. The IC50 in experiment [2] is less than 1000 nM.
Take `C[C@@H](NC(=O)c1cc(C(=O)N[C@@H](Cc2ccccc2)[C@H](O)CNCc2cccc(C(C)(C)C)c2)cc(N(C)S(C)(=O)=O)c1)c1ccccc1` [Compound 58, N1-((2S,3R)-4-(3-tert-butylbenzylamino)-3-hydroxy-1-phenylbutan-2-yl)-5-(N-methylmethylsulfonamido)-N3-((R)-1-phenylethyl)isophthalamide]: the Ki in experiment [1] was less than 300 nM. Also, the IC50 in experiment [2] was less than 1000 nM.
Taken in the same sequence, the figures for `Cc1csc(CN(C(=O)c2cccc(C(=O)N[C@@H](Cc3ccccc3)[C@H](O)CNCc3cncc(C(F)(F)F)c3)c2)C2CC2)n1` [Compound 59, N1-cyclopropyl-N3-((2S,3R)-3-hydroxy-1-phenyl-4-((5-(trifluoromethyl)pyridin-3-yl)methylamino)butan-2-yl)-N1-((4-methylthiazol-2-yl)methyl)isophthalamide] were less than 300 nM and less than 1000 nM.
The like results for `Cc1cc(C(=O)N[C@@H](Cc2ccccc2)[C@H](O)CNCc2ccnc(C(C)C)c2)cc(C(=O)N(C)Cc2nc(C)cs2)c1` [Compound 60, N1-((2S,3R)-3-hydroxy-4-((2-isopropylpyridin-4-yl)methylamino)-1-phenylbutan-2-yl)-N3,5-dimethyl-N3-((4-methylthiazol-2-yl)methyl)isophthalamide] were, in that order, less than 300 nM and less than 1000 nM.
Taken in the same sequence, the figures for `COc1cccc(CNC[C@@H](O)[C@H](Cc2ccccc2)NC(=O)c2cccc(C(=O)N(C)Cc3ccn(C)n3)c2)c1` [Compound 61, N1-((2S,3R)-3-hydroxy-4-(3-methoxybenzylamino)-1-phenylbutan-2-yl)-N3-methyl-N3-((1-methyl-1H-pyrazol-3-yl)methyl)isophthalamide] were less than 300 nM and 1000 to 5000 nM.
Regarding `Cc1csc(CN(C)C(=O)c2cccc(C(=O)N[C@@H](Cc3ccccc3)[C@H](O)CNCc3ccccn3)c2)n1` [Compound 64, N1-((2S,3R)-3-hydroxy-1-phenyl-4-(pyridin-2-ylmethylamino)butan-2-yl)-N3-methyl-N3-((4-methylthiazol-2-yl)methyl)isophthalamide], the Ki in experiment [1] was more than 501 nM. Moreover, the IC50 in experiment [2] fell in the range of 1000 to 5000 nM.
`COc1cccc(CNC[C@@H](O)[C@H](Cc2ccccc2)NC(=O)c2cc(C(=O)N(C)Cc3nc(C)cs3)cc(N(C)C)c2)c1` [Compound 65, 5-(dimethylamino)-N1-((2S,3R)-3-hydroxy-4-(3-methoxybenzylamino)-1-phenylbutan-2-yl)-N3-methyl-N3-((4-methylthiazol-2-yl)methyl)isophthalamide]: the Ki in experiment [1] was less than 300 nM. Moreover, the IC50 in experiment [2] was less than 1000 nM.
Taken in the same sequence, the figures for `COc1cccc(CNC[C@@H](O)[C@H](Cc2ccccc2)NC(=O)c2cc(OS(C)(=O)=O)cc(C(=O)N(C)Cc3nc(C)cs3)c2)c1` [Compound 67, 3-((2S,3R)-3-hydroxy-4-(3-methoxybenzylamino)-1-phenylbutan-2-ylcarbamoyl)-5-(methyl((4-methylthiazol-2-yl)methyl)carbamoyl)phenyl methanesulfonate] were less than 300 nM and less than 1000 nM.
Taken in the same sequence, the figures for `Cc1csc(CN(C)C(=O)c2cccc(C(=O)N[C@@H](Cc3ccccc3)[C@H](O)CNCc3cncc(CCC(C)C)c3)c2)n1` [Compound 68, N1-((2S,3R)-3-hydroxy-4-((5-isopentylpyridin-3-yl)methylamino)-1-phenylbutan-2-yl)-N3-methyl-N3-((4-methylthiazol-2-yl)methyl)isophthalamide] were less than 300 nM and less than 1000 nM.
Taken in the same sequence, the figures for `COc1cccc(CNC[C@@H](O)[C@H](Cc2ccccc2)NC(=O)c2cc(OS(C)(=O)=O)cc(C(=O)N[C@H](C)c3ccccc3)c2)c1` [Compound 70, 3-((2S,3R)-3-hydroxy-4-(3-methoxybenzylamino)-1-phenylbutan-2-ylcarbamoyl)-5-((R)-1-phenylethylcarbamoyl)phenyl methanesulfonate] were less than 300 nM and less than 1000 nM.
For `Cc1csc(CN(C)C(=O)c2cccc(C(=O)N[C@@H](Cc3ccccc3)[C@H](O)CNCc3cccc(O)c3)c2)n1` [Compound 73, N1-((2S,3R)-3-hydroxy-4-(3-hydroxybenzylamino)-1-phenylbutan-2-yl)-N3-methyl-N3-((4-methylthiazol-2-yl)methyl)isophthalamide], in experiment [1], the Ki was more than 501 nM. Besides, the IC50 in experiment [2] was more than 5000 nM.
The like results for `Cc1csc(CN(C)C(=O)c2cccc(C(=O)N[C@@H](Cc3ccccc3)[C@H](O)CNCc3cc(NC(=O)OCc4ccccc4)cc(C(C)C)c3)c2)n1` [Compound 74, benzyl 3-(((2R,3S)-2-hydroxy-3-(3-(methyl((4-methylthiazol-2-yl)methyl)carbamoyl)benzamido)-4-phenylbutylamino)methyl)-5-isopropylphenylcarbamate] were, in that order, less than 300 nM and less than 1000 nM.
Taken in the same sequence, the figures for `Cc1csc(CN(C)C(=O)c2cccc(C(=O)N[C@@H](Cc3ccccc3)[C@H](O)CNCc3cc(N)cc(C(C)C)c3)c2)n1` [Compound 75, N1-((2S,3R)-4-(3-amino-5-isopropylbenzylamino)-3-hydroxy-1-phenylbutan-2-yl)-N3-methyl-N3-((4-methylthiazol-2-yl)methyl)isophthalamide] were less than 300 nM and less than 1000 nM.
The like results for `Cc1csc(CN(C)C(=O)c2cccc(C(=O)N[C@@H](Cc3ccccc3)[C@H](O)CNCc3cccc(C(C)(C)C)c3O)c2)n1` [Compound 77, N1-((2S,3R)-4-(3-tert-butyl-2-hydroxybenzylamino)-3-hydroxy-1-phenylbutan-2-yl)-N3-methyl-N3-((4-methylthiazol-2-yl)methyl)isophthalamide] were, in that order, less than 300 nM and less than 1000 nM.
`COc1cccc(CNC[C@@H](O)[C@H](Cc2ccccc2)NC(=O)c2cc(C(=O)N(C)Cc3nc(C)cs3)cc(-c3ccccc3)c2)c1` [Compound 78, N3-((2S,3R)-3-hydroxy-4-(3-methoxybenzylamino)-1-phenylbutan-2-yl)-N5-methyl-N5-((4-methylthiazol-2-yl)methyl)biphenyl-3,5-dicarboxamide]: in experiment [1], the Ki was less than 300 nM. The IC50 in experiment [2] is less than 1000 nM.
The like results for `C[C@@H](NC(=O)c1cc(C(=O)N[C@@H](Cc2ccccc2)[C@H](O)CNCc2cccc(C(C)(C)C)c2O)cc(N(C)S(C)(=O)=O)c1)c1ccccc1` [Compound 79, N1-((2S,3R)-4-(3-tert-butyl-2-hydroxybenzylamino)-3-hydroxy-1-phenylbutan-2-yl)-5-(N-methylmethylsulfonamido)-N3-((R)-1-phenylethyl)isophthalamide] were, in that order, less than 300 nM and less than 1000 nM.
Taken in the same sequence, the figures for `COc1cc(C(=O)NCc2nc(C)cs2)cc(C(=O)N[C@@H](Cc2ccccc2)[C@H](O)CNCc2ccnc(C(C)C)c2)c1` [Compound 83, N1-((2S,3R)-3-hydroxy-4-((2-isopropylpyridin-4-yl)methylamino)-1-phenylbutan-2-yl)-5-methoxy-N3-((4-methylthiazol-2-yl)methyl)isophthalamide] were less than 300 nM and less than 1000 nM.

The IC50 is the concentration needed to halve the response being measured.
